Laboratory results published in patent US5654436A, “2-substituted benzimidazole derivatives” (American Home Products Corporation, priority 1995, dated 1997).
Like-named read-outs stand apart in the source and are kept apart here.

Test system: Porcine Smooth Muscle Cell
Test: Inhibition of smooth muscle cell proliferation (3H-thymidine, serum or PDGF stimulated)
Assay type: cell-based
Details: Sus scrofa, porcine aortic smooth muscle cells, 24-36 hours; for inhibition at 10 µM: read-out: Porcine Smooth Muscle Cell Antiproliferation % Inhibition at x Concentration, Serum
Description: The ability of the compounds of the present invention to inhibit smooth muscle cell proliferation was established using isolated porcine nortic smooth muscle cells in a modification of the procedure of Casteliot et al. J. Biol. Chem 257(19) 11256 (1982), as follows:
Fresh porcine aortas, scrupulously cleansed of fatty tissue, are rinsed in sterile phosphate-buffered saline with 2% antibiotic-antimycotic (100×) liquid ( 10,000 units of penicillin (base), 10,000 μg of streptomycin (base), and 25 μg of amphotericin B/mL utilizing penicillin G (sodium salt), streptomycin sulfate, and amphotericin B as Fungizone® in 0.85% saline, available from Gibco Laboratories, Grand Island Biological Co., Grand Island, N.Y.). The tissue is then digested in 10-15 mL of an enzyme solution containing collagerinse type I, 165 U/mL; elastase type III, 15 U/mL; BSA, 2 mg/mL; and soybean trypsin inhibitor, 0.375 mg/mL, followed by incubation at 37° C. under 5% CO2 atmosphere for 10 to 15 minutes. After this treatment, the outer surface adventitia is removed by peeling with a forceps. The aorta is then longitudinally cut and laid open and the endothelial layer is removed by scraping.
The medial layer of cells is rinsed in the enzyme solution, and placed in a new 100 mm dish with 10 mL of enzyme solution. The medial layer of cells is minced using a fine pair of scissors and digested for 2-3 hours at 37° C. in 30 mL of fresh enzyme solution. After digestion, the medial tissue is homogenized using a sterile Pasteur pipette with a fire polished tip or an Eppendorf pipetter with a 200-1000 gL sterile pipette tip. The suspension is then centrifuged for 10 minutes at 8000 rpm and the pellet is suspended in 4-6 mL of fresh enzyme solution and plated onto 4-6 100 mm flasks with vented caps. The cells are then allowed to grow to confluence and split using 0.25% trypsin. The cells are evaluated for purity and overall quality using antibody to SMC actin.
The cells are assayed in early passage (generally passage 3-7) at sub-confluent conditions. Cultures are grown in 16 mm (24 well) multi-well culture dishes in media 199 supplemented with 10% fetal bovine serum and 2% antibiotic/antimycotic. At subconfluence, the cells are placed in a defined serum free, lymphocyte medium (AIM-V; Gibeo) for 24-48 hours prior to initiating the experimental protocol.
The standard test procedure is initiated by addition of the test compound, ^3 H-thymidine and serum or a specific growth factor to the serum deprived synchronized cells. Growth factor and serum stimulations are optimized for each cell type. The test compounds are added to each well at 50 fold dilution (20 μL/well) and the plates are incubated for 24-36 hours at 37° C. in 5% CO2 atmosphere. Test compounds are dissolved in 50% ethanol and assayed at 1, 10, and 100 μM. As a control, RG 50872 (Bilder, G. A.; et al., Am. J. Cell Physiol., 1991; 260: C721) is routinely assayed under the conditions of each cell preparation at a concentration of 5 μM.
At the completion of the experiment, the plates are placed on ice, washed three times with ice cold PBS and incubated in ice cold 10% trichloroacetic acid (TCA) for 30 minutes to remove acid soluble proteins. Each solution is transferred to a scintillation vial containing 0.4N HCl (500 μL/vial to neutralize NaOH) and each well is rinsed two times with water (500 μL) for a total volume of 2 mL/vial.
Data is quantitated by subjecting the vials to a scintillation counter, in triplicate, for both control and experimental samples. Control (100%) data is obtained from maximally stimulated cells, as the result of growth factor or serum stimulation. Experimental data is obtained from cells maximally stimulated with growth factor or serum and treated with a test compound. (The platelet-derived growth factor used in the assay was human recombinant PDGF-AB purchased from Upstate Biotechnology Inc., Lake Placid, N.Y.). Data is expressed as a percent of control from which IC50 s are determined.

[1] = human recombinant PDGF-AB stimulated, read-out: Porcine Smooth Muscle Cell Antiproliferation IC50, PDGF

Clc1ccc(Cn2c(-c3ccccn3)nc3ccccc32)cc1Cl [Example 1, 1-(3,4-Dichiorobenzyl)-2-pyridin-2-yl-1H-benzoimidazole]
IC50 [1]: 4400 nM
inhibition at 10 µM (serum stimulated): 39.8%

COC(=O)c1ccc(Cn2c(C(F)(F)F)nc3cc(C)c(C)cc32)cc1 [Example 3, 4-(5,6-Dimethyl-2-trifluoromethyl-benzoimidazol-1-ylmethyl)-benzoic acid methyl ester]
IC50 [1]: 2470 nM
inhibition at 10 µM (serum stimulated): 41.3%

CCCc1nc2cc([N+](=O)[O-])ccc2n1Cc1ccc(C(=O)OCC)cc1 [Example 4, 4-(5-Nitro-2-propyl-benzoimidazol-1-ylmethyl)-benzoic acid ethyl ester]
IC50 [1]: 760 nM
IC50 (serum stimulated, read-out: Porcine Smooth Muscle Cell Antiproliferation IC50, Serum): 660 nM

COC(=O)c1ccc(Cn2c(-c3ccccn3)nc3ccccc32)cc1 [Example 2, 4-[2-(Pyridin-2-yl)-benzoimidazol-1-ylmethyl]-benzoic acid methyl ester]
IC50 [1]: 1100 nM
inhibition at 10 µM (serum stimulated): 38.4%
